Earlier results as cited in patent US9120722B1, “Optically active valine complex and a method for producing the same” (Wellman Biosciences Co. Ltd., priority 2014, dated 2015).

Details: for Solubility in water of the sulfonic acid salt with L-valine: salts with L-valine, prior art U.S. Pat. No. 5,689,001 and No. 6,072,083

Solubility in water of the sulfonic acid salt with L-valine [%]	Solubility (aqueous solution) (room temperature, stated as known)	Compound
7.8	–	CC(C)c1ccc(S(=O)(=O)O)cc1 [p-isopropylbenzene sulfonic acid]
–	8-10%	CC(C)[C@@H](N)C(=O)O [D-valine]
14.5	–	CCc1ccc(S(=O)(=O)O)cc1 [p-ethylbenzene sulfonic acid]
